# Assay results taken from PubChem BioAssay (NCI).
#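 Where inhibition never reached the appropriate level, the endpoint shown equals the highest concentration tested. Otherwise, values were interpolated linearly from a five-concentration, 48-hour dose response in 96-well plates. GI50 = concentration required for 50% inhibition of growth. TGI denotes the concentration required for complete inhibition of growth.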
# Columns and labels:
# Test in all cases: growth of human tumour cells (NCI), 48 h
# SF-268 CNS = system: SF-268 CNS
# SNB-19 CNS = system: SNB-19 CNS
# IGROV1 ovarian = system: IGROV1 ovarian
# M14 melanoma = system: M14 melanoma
# MDA-MB-435 = system: MDA-MB-435
# UACC-62 melanoma = system: UACC-62 melanoma
# NCI/ADR-RES ovarian = system: NCI/ADR-RES ovarian
# HCT-15 colon = system: HCT-15 colon
# K-562 leukemia = system: K-562 leukemia
# UO-31 renal = system: UO-31 renal
# SW-620 colon = system: SW-620 colon
# SNB-75 CNS = system: SNB-75 CNS
# MCF7 breast = system: MCF7 breast
# HOP-92 NSCLC = system: HOP-92 NSCLC
# NCI-H522 lung = system: NCI-H522 lung
# LOX IMVI melanoma = system: LOX IMVI melanoma
# OVCAR-3 ovarian = system: OVCAR-3 ovarian
# SK-MEL-2 melanoma = system: SK-MEL-2 melanoma
# OVCAR-4 ovarian = system: OVCAR-4 ovarian
# NCI-H226 lung = system: NCI-H226 lung
# MOLT-4 leukemia = system: MOLT-4 leukemia
# CAKI-1 renal = system: CAKI-1 renal
# CCRF-CEM leukemia = system: CCRF-CEM leukemia
# RPMI-8226 leukemia = system: RPMI-8226 leukemia
# A549 NSCLC = system: A549 NSCLC
# SK-MEL-5 melanoma = system: SK-MEL-5 melanoma
# EKVX NSCLC = system: EKVX NSCLC
# HS 578T breast = system: HS 578T breast
# SK-OV-3 ovarian = system: SK-OV-3 ovarian
# PC-3 prostate = system: PC-3 prostate
# NCI-H460 lung = system: NCI-H460 lung
# ACHN renal = system: ACHN renal
# HT29 colon = system: HT29 colon
# HOP-62 NSCLC = system: HOP-62 NSCLC
# SN12C renal = system: SN12C renal
# 786-0 renal = system: 786-0 renal
# MDA-MB-231 breast = system: MDA-MB-231 breast
# HCC-2998 colon = system: HCC-2998 colon
# OVCAR-5 ovarian = system: OVCAR-5 ovarian
# TK-10 renal = system: TK-10 renal
# SF-539 CNS = system: SF-539 CNS
# U251 CNS = system: U251 CNS
# NCI-H23 lung = system: NCI-H23 lung
# OVCAR-8 ovarian = system: OVCAR-8 ovarian
# MALME-3M melanoma = system: MALME-3M melanoma
# HCT-116 colon = system: HCT-116 colon
# SK-MEL-28 melanoma = system: SK-MEL-28 melanoma
# DU-145 prostate = system: DU-145 prostate
# RXF 393 renal = system: RXF 393 renal
# SF-295 CNS = system: SF-295 CNS
# HL-60(TB) leukemia = system: HL-60(TB) leukemia
# SR leukemia = system: SR leukemia
# COLO 205 colon = system: COLO 205 colon
# KM12 colon = system: KM12 colon
# BT-549 breast = system: BT-549 breast
smiles,measurement,setting,value
Nc1nc(N)c2cc(S(=O)(=O)c3cccc(C(F)(F)F)c3)ccc2n1,GI50,SF-268 CNS,4.57 µM
same,TGI,SF-268 CNS,> 100 µM
same,GI50,SNB-19 CNS,5.44 µM
same,TGI,SNB-19 CNS,> 100 µM
same,GI50,IGROV1 ovarian,5.28 µM
same,TGI,IGROV1 ovarian,> 100 µM
same,GI50,M14 melanoma,2 µM
same,TGI,M14 melanoma,> 100 µM
same,GI50,MDA-MB-435,2.12 µM
same,TGI,MDA-MB-435,> 100 µM
same,GI50,UACC-62 melanoma,3.41 µM
same,TGI,UACC-62 melanoma,> 100 µM
same,GI50,NCI/ADR-RES ovarian,7.79 µM
same,TGI,NCI/ADR-RES ovarian,> 100 µM
same,GI50,HCT-15 colon,3.09 µM
same,TGI,HCT-15 colon,> 100 µM
same,GI50,K-562 leukemia,0.682 µM
same,TGI,K-562 leukemia,> 100 µM
same,GI50,UO-31 renal,4.96 µM
same,TGI,UO-31 renal,> 100 µM
same,GI50,SW-620 colon,0.989 µM
same,TGI,SW-620 colon,> 100 µM
same,GI50,SNB-75 CNS,12.9 µM
same,TGI,SNB-75 CNS,39.8 µM
same,GI50,MCF7 breast,5.7 µM
same,TGI,MCF7 breast,> 100 µM
same,GI50,HOP-92 NSCLC,3.56 µM
same,TGI,HOP-92 NSCLC,38 µM
same,GI50,NCI-H522 lung,3.05 µM
same,TGI,NCI-H522 lung,> 100 µM
same,GI50,LOX IMVI melanoma,1.53 µM
same,TGI,LOX IMVI melanoma,> 100 µM
same,GI50,OVCAR-3 ovarian,6 µM
same,TGI,OVCAR-3 ovarian,> 100 µM
same,GI50,SK-MEL-2 melanoma,11 µM
same,TGI,SK-MEL-2 melanoma,73.2 µM
same,GI50,OVCAR-4 ovarian,5.71 µM
same,TGI,OVCAR-4 ovarian,> 100 µM
same,GI50,NCI-H226 lung,21.5 µM
same,TGI,NCI-H226 lung,> 100 µM
same,GI50,MOLT-4 leukemia,4.32 µM
same,TGI,MOLT-4 leukemia,> 100 µM
same,GI50,CAKI-1 renal,> 100 µM
same,TGI,CAKI-1 renal,> 100 µM
same,GI50,CCRF-CEM leukemia,3.41 µM
same,TGI,CCRF-CEM leukemia,> 100 µM
same,GI50,RPMI-8226 leukemia,5.21 µM
same,TGI,RPMI-8226 leukemia,> 100 µM
same,GI50,A549 NSCLC,0.816 µM
same,TGI,A549 NSCLC,> 100 µM
same,GI50,SK-MEL-5 melanoma,2.98 µM
same,TGI,SK-MEL-5 melanoma,> 100 µM
same,GI50,EKVX NSCLC,3.32 µM
same,TGI,EKVX NSCLC,> 100 µM
same,GI50,HS 578T breast,4.55 µM
same,TGI,HS 578T breast,49.7 µM
same,GI50,SK-OV-3 ovarian,14.8 µM
same,TGI,SK-OV-3 ovarian,> 100 µM
same,GI50,PC-3 prostate,3.36 µM
same,TGI,PC-3 prostate,> 100 µM
same,GI50,NCI-H460 lung,0.575 µM
same,TGI,NCI-H460 lung,> 100 µM
same,GI50,ACHN renal,4.43 µM
same,TGI,ACHN renal,> 100 µM
same,GI50,HT29 colon,2.42 µM
same,TGI,HT29 colon,> 100 µM
same,GI50,HOP-62 NSCLC,6.43 µM
same,TGI,HOP-62 NSCLC,34.2 µM
same,GI50,SN12C renal,6.34 µM
same,TGI,SN12C renal,> 100 µM
same,GI50,786-0 renal,3.98 µM
same,TGI,786-0 renal,> 100 µM
same,GI50,MDA-MB-231 breast,9.75 µM
same,TGI,MDA-MB-231 breast,> 100 µM
same,GI50,HCC-2998 colon,5.03 µM
same,TGI,HCC-2998 colon,> 100 µM
same,GI50,OVCAR-5 ovarian,6.46 µM
same,TGI,OVCAR-5 ovarian,> 100 µM
same,GI50,TK-10 renal,7.78 µM
same,TGI,TK-10 renal,> 100 µM
same,GI50,SF-539 CNS,6.63 µM
same,TGI,SF-539 CNS,> 100 µM
same,GI50,U251 CNS,3.52 µM
same,TGI,U251 CNS,> 100 µM
same,GI50,NCI-H23 lung,3.63 µM
same,TGI,NCI-H23 lung,> 100 µM
same,GI50,OVCAR-8 ovarian,4.22 µM
same,TGI,OVCAR-8 ovarian,> 100 µM
same,GI50,MALME-3M melanoma,5.74 µM
same,TGI,MALME-3M melanoma,> 100 µM
same,GI50,HCT-116 colon,1.47 µM
same,TGI,HCT-116 colon,> 100 µM
same,GI50,SK-MEL-28 melanoma,85.1 µM
same,TGI,SK-MEL-28 melanoma,> 100 µM
same,GI50,DU-145 prostate,6.35 µM
same,TGI,DU-145 prostate,> 100 µM
same,GI50,RXF 393 renal,3.8 µM
same,TGI,RXF 393 renal,57.8 µM
same,GI50,SF-295 CNS,2.57 µM
same,TGI,SF-295 CNS,97.5 µM
CC(=O)OCC1OC(n2c(-c3ccc(C)cc3)cc(-c3ccco3)c(C#N)c2=O)C(OC(C)=O)C(OC(C)=O)C1OC(C)=O (stereo not drawn),TGI,SNB-75 CNS,> 100 µM
same,TGI,HL-60(TB) leukemia,> 100 µM
Cc1cccc(-c2cc(=O)c3cccnc3[nH]2)c1,TGI,SF-268 CNS,> 100 µM
same,TGI,SNB-19 CNS,> 100 µM
same,TGI,IGROV1 ovarian,> 100 µM
same,TGI,M14 melanoma,> 100 µM
same,TGI,MDA-MB-435,0.191 µM
same,TGI,UACC-62 melanoma,> 100 µM
same,TGI,NCI/ADR-RES ovarian,> 100 µM
same,TGI,HCT-15 colon,> 100 µM
same,TGI,K-562 leukemia,> 100 µM
same,TGI,UO-31 renal,> 100 µM
same,TGI,SW-620 colon,> 100 µM
same,TGI,SNB-75 CNS,> 100 µM
same,TGI,MCF7 breast,> 100 µM
same,TGI,HOP-92 NSCLC,> 100 µM
same,TGI,NCI-H522 lung,8.25 µM
same,TGI,LOX IMVI melanoma,> 100 µM
same,TGI,OVCAR-3 ovarian,> 100 µM
same,TGI,OVCAR-4 ovarian,> 100 µM
same,TGI,NCI-H226 lung,> 100 µM
same,TGI,SR leukemia,> 100 µM
same,TGI,MOLT-4 leukemia,> 100 µM
same,TGI,CCRF-CEM leukemia,> 100 µM
same,TGI,COLO 205 colon,7.5 µM
same,TGI,RPMI-8226 leukemia,> 100 µM
same,TGI,A549 NSCLC,> 100 µM
same,TGI,SK-MEL-5 melanoma,52.3 µM
same,TGI,EKVX NSCLC,87.2 µM
same,TGI,HS 578T breast,> 100 µM
same,TGI,SK-OV-3 ovarian,> 100 µM
same,TGI,KM12 colon,82 µM
same,TGI,PC-3 prostate,> 100 µM
same,TGI,HL-60(TB) leukemia,0.654 µM
same,TGI,NCI-H460 lung,> 100 µM
same,TGI,ACHN renal,> 100 µM
same,TGI,HT29 colon,2.93 µM
same,TGI,HOP-62 NSCLC,> 100 µM
same,TGI,SN12C renal,> 100 µM
same,TGI,786-0 renal,> 100 µM
same,TGI,MDA-MB-231 breast,> 100 µM
same,TGI,HCC-2998 colon,13.2 µM
same,TGI,OVCAR-5 ovarian,> 100 µM
same,TGI,SF-539 CNS,> 100 µM
same,TGI,U251 CNS,> 100 µM
same,TGI,NCI-H23 lung,> 100 µM
same,TGI,OVCAR-8 ovarian,53.6 µM
same,TGI,HCT-116 colon,> 100 µM
same,TGI,SK-MEL-28 melanoma,> 100 µM
same,TGI,DU-145 prostate,> 100 µM
same,TGI,RXF 393 renal,> 100 µM
same,TGI,BT-549 breast,> 100 µM
same,TGI,SF-295 CNS,> 100 µM
